Activity calls are given as the source filed them.
Legend:
[1] = target: Mitogen-activated protein kinase 10 (Homo sapiens, UniProt P53779); test: Dose response biochemical screening assay for inhibitors of c-Jun N-Terminal Kinase 3 (JNK3). [Related pubchem assays: 746 ]
[2] = Luminescence Cell-Based Dose Response HTS to Identify Inhibitors of 5'UTR Stem-Loop Driven Prion Protein mRNA Translation in H4 Neuroglioblastoma Cells. [Related pubchem assays: 1827 (Project Summary), 1813 (Primary HTS)]; type: functional
[3] = alpha-synuclein stem-loop luciferase translation blockers – H4 neuroglioma cells, luminescence, confirmation (AID 1988); type: functional, cell-based
[4] = target: T1, Microphthalmia-associated transcription factor (Homo sapiens, UniProt O75030); test: reducers of TRPM1 reporter luminescence, concentration series – cell-based, SK-MEL-5, cherry-picked, set 3, MITF inhibitor project, dose response (AID 493073); type: functional;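 further: SK-MEL-5 melanoma cells with luciferase driven by the MITF target TRPM1 promoter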
T1 sequence (O75030 whole entry): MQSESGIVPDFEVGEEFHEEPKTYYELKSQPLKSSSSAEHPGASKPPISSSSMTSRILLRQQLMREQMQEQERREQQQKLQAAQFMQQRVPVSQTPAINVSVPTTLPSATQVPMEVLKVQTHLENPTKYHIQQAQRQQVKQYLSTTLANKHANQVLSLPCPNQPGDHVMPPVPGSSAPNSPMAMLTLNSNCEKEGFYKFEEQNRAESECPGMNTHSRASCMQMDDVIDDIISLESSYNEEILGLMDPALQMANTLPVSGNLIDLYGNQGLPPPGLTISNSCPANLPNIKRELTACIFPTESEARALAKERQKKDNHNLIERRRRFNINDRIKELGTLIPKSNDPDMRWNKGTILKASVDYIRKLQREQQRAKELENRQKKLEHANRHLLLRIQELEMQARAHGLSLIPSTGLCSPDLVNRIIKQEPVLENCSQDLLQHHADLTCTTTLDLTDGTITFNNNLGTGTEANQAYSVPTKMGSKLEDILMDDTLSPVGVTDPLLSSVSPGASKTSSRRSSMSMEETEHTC

[5] = A549 cell cytotoxicity, dose response, cytotoxicity control, plate reader, cherry-pick, antagonist series (AID 743412); type: functional, cell-based
[6] = blockers of bursicon-stimulated LGR2 cAMP reporter – cell-based, HEK293, CRE-luciferase reporter, cherry pick, set 2, dose response (AID 743343); type: functional;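 further: transfected cells were stimulated with diluted bursicon conditioned medium after compound addition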
[7] = blockade of melanocortin 4 receptor signaling – cell-based, plate reader, cherry pick, counter-screen for LGR2 antagonist project, dose response (AID 743444); type: functional;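 further: transfected HEK 293 cells stimulated with alpha-MSH peptide; potency of inhibitors of the alpha-MSH evoked signal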
[8] = toxicity toward HepG2 liver cells – cell-based, plate reader, cherry-pick, antagonist series, cytotoxicity control, dose response (AID 743416); type: functional
[9] = viability loss in HEK293 cells – cell-based, plate reader, cherry-picked samples, cytotoxicity control, dose response (AID 743446); type: functional
[10] = HPDE-C7 pancreatic duct cell viability loss – fluorescence, HTS (AID 430); type: functional, cell-based; conditions: Homo sapiens
[11] = viability loss of HPDE-C7K cells – cell-based, fluorescence, HTS, primary screen (AID 431); type: functional; conditions: Homo sapiens
[12] = viability of uninfected HEp-2 cells – cell-based, HTS, cytotoxicity control for RSV inhibitor project, dose response (AID 2410); type: functional; conditions: human respiratory syncytial virus
[13] = Trypanosoma cruzi growth suppression in host cells – NIH3T3 host cells, beta-gal luminescence, confirmation (AID 2044); type: functional, cell-based;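 further: intracellular parasites grown in NIH/3T3 mouse fibroblasts as host cells; luminescent beta-galactosidase reporter signal from transgenic T. cruzi replicating inside host cells; inhibitors lower the luminescence signal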
[14] = NIH3T3 cell viability loss – ATP luminescence, mouse fibroblasts, counter-screen, dose response (AID 2010); type: functional, cell-based;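 further: cells exposed to compound for about 90 hours before reading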
[15] = target: T2, Heat shock factor protein 1 (Mus musculus, UniProt P38532); test: enhancement of HSF1-driven luciferase signal – cell-based, NIH3T3, luminescence, dose retest, confirmation (AID 435004); type: functional;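 further: stress induced by proteasome inhibitor MG132 added 30 min after compound; luciferase reporter driven by HSF1 response element in NIH3T3 cells; actives raise luminescence as potentiators of the MG132 stress response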
T2 sequence (P38532 whole entry): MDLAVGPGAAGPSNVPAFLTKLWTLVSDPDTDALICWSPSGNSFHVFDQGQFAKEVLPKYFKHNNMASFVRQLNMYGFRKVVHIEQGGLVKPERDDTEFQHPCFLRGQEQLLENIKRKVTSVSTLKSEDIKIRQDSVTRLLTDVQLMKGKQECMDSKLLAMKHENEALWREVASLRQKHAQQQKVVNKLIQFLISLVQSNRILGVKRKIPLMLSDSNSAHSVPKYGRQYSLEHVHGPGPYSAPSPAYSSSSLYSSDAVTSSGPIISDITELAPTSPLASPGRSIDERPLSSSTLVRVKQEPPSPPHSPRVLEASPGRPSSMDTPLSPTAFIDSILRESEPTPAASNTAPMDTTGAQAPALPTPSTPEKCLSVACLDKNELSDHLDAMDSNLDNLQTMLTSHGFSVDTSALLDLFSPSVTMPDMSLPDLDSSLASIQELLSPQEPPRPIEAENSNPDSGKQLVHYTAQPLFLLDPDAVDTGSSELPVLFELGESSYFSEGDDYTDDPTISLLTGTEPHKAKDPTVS

Fatty acid synthase [16] = target: T3, Fatty acid synthase (Homo sapiens, UniProt P49327); test: inhibition of human FAS-TE enzyme activity – biochemical, endpoint fluorescence intensity, uHTS hits, dose response (AID 624327); type: functional;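 further: fluorescence from hydrolysis of an O-methyl fluorescein acyl ester substrate by the enzyme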
Fatty acid synthase [17] = target: T3, Fatty acid synthase; test: inhibition of human FAS-TE enzyme activity – biochemical, kinetic fluorescence intensity, dose response (AID 624326); type: functional;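 further: rate of fluorescence rise from hydrolysis of a fluorogenic O-methyl fluorescein ester substrate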
[18] = luciferase reporter signal suppression in cells – H4 neuroglioma cells, luminescence, dose response (AID 1990); type: functional, cell-based
[19] = Luminescence Cell-Based Dose Confirmation HTS to Identify Activators of 5'UTR Stem-Loop Driven Alpha-Synuclein mRNA Translation in H4 Neuroglioblastoma Cells. [Related pubchem assays: 1829 (Project Summary), 1814 (Primary HTS)]; type: functional
[20] = Luminescence Cell-Based Dose Response HTS to Identify Activators of Luciferase Translation or Activity in H4 […] Cells. [Related pubchem assays: 1829 (Project Summary), 1814 (Primary HTS)]; type: functional
H4 = test: Luminescence Cell-Based Dose Response HTS to Identify Activators of 5'UTR Stem-Loop Driven Prion Protein mRNA Translation in H4 Neuroglioblastoma Cells. [Related pubchem assays: 1829 (Project Summary), 1814 (Primary HTS)]; type: functional; conditions: Homo sapiens
Estrogen receptor beta [21] = target: T4, Estrogen receptor beta (Homo sapiens, UniProt Q92731);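 further: recombinant ER-beta bound to coactivator SRC1 peptide in presence of estradiol agonist; inhibitors block coactivator peptide binding and lower the FRET signal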
Estrogen receptor beta [22] = target: T4, Estrogen receptor beta; test: blockers of SRC-3 recruitment to ERβ – biochemical, ELISA, streptavidin-HRP readout, orthogonal assay, confirmation (AID 1060)
[23] = target: T5, Carboxy-terminal domain RNA polymerase II polypeptide A small phosphatase 1 (Homo sapiens, UniProt Q9GZU7); test: CTDSP1 inhibitors, concentration-response, biochemical, absorbance readout, ultra-high-throughput screen actives (AID 540297); type: functional
T5 sequence (Q9GZU7 whole entry): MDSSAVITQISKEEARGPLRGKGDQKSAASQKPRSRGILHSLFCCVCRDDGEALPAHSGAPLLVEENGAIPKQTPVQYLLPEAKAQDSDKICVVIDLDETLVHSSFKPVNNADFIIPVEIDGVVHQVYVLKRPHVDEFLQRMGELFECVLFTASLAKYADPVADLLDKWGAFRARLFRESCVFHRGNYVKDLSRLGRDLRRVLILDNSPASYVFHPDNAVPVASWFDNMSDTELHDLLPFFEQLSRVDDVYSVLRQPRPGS

[24] = target: T6, Histone-lysine N-methyltransferase NSD2 (Homo sapiens, UniProt O96028); type: biochemical
T6 sequence (O96028 whole entry): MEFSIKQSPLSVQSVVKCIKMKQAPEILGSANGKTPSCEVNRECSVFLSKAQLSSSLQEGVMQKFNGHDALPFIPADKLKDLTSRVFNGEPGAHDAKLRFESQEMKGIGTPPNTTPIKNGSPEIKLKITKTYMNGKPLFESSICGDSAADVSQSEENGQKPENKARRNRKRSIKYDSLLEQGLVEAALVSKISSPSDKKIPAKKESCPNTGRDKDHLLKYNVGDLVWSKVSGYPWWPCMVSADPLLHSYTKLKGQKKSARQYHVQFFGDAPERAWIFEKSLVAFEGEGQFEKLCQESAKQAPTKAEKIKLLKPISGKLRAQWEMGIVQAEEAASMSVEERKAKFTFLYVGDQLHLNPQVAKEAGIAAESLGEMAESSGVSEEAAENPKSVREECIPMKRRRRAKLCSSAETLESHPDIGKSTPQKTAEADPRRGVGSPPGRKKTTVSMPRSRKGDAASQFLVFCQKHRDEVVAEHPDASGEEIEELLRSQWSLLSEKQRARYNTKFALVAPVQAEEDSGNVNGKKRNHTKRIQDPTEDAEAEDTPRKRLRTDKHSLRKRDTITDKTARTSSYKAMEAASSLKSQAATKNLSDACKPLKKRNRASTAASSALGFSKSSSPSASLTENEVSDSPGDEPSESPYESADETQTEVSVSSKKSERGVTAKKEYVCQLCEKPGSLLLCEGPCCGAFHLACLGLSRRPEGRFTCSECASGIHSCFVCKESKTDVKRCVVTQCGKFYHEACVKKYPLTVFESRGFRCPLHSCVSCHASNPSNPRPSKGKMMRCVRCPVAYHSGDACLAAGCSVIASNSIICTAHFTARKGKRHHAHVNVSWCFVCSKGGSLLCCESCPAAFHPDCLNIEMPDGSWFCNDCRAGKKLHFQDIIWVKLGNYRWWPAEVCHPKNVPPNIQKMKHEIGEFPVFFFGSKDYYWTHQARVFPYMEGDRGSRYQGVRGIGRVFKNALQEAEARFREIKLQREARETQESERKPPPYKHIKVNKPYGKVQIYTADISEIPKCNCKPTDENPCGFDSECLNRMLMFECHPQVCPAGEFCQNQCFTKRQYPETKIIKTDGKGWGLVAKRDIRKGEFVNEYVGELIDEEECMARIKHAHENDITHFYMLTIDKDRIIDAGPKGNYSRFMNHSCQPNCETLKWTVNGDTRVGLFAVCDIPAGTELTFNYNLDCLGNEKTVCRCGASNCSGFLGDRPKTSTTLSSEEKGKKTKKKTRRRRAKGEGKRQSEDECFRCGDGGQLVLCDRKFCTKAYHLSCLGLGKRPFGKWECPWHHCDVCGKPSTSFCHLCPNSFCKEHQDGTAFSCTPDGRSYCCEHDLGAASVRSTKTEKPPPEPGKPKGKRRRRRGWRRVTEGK

T3 sequence (P49327 whole entry): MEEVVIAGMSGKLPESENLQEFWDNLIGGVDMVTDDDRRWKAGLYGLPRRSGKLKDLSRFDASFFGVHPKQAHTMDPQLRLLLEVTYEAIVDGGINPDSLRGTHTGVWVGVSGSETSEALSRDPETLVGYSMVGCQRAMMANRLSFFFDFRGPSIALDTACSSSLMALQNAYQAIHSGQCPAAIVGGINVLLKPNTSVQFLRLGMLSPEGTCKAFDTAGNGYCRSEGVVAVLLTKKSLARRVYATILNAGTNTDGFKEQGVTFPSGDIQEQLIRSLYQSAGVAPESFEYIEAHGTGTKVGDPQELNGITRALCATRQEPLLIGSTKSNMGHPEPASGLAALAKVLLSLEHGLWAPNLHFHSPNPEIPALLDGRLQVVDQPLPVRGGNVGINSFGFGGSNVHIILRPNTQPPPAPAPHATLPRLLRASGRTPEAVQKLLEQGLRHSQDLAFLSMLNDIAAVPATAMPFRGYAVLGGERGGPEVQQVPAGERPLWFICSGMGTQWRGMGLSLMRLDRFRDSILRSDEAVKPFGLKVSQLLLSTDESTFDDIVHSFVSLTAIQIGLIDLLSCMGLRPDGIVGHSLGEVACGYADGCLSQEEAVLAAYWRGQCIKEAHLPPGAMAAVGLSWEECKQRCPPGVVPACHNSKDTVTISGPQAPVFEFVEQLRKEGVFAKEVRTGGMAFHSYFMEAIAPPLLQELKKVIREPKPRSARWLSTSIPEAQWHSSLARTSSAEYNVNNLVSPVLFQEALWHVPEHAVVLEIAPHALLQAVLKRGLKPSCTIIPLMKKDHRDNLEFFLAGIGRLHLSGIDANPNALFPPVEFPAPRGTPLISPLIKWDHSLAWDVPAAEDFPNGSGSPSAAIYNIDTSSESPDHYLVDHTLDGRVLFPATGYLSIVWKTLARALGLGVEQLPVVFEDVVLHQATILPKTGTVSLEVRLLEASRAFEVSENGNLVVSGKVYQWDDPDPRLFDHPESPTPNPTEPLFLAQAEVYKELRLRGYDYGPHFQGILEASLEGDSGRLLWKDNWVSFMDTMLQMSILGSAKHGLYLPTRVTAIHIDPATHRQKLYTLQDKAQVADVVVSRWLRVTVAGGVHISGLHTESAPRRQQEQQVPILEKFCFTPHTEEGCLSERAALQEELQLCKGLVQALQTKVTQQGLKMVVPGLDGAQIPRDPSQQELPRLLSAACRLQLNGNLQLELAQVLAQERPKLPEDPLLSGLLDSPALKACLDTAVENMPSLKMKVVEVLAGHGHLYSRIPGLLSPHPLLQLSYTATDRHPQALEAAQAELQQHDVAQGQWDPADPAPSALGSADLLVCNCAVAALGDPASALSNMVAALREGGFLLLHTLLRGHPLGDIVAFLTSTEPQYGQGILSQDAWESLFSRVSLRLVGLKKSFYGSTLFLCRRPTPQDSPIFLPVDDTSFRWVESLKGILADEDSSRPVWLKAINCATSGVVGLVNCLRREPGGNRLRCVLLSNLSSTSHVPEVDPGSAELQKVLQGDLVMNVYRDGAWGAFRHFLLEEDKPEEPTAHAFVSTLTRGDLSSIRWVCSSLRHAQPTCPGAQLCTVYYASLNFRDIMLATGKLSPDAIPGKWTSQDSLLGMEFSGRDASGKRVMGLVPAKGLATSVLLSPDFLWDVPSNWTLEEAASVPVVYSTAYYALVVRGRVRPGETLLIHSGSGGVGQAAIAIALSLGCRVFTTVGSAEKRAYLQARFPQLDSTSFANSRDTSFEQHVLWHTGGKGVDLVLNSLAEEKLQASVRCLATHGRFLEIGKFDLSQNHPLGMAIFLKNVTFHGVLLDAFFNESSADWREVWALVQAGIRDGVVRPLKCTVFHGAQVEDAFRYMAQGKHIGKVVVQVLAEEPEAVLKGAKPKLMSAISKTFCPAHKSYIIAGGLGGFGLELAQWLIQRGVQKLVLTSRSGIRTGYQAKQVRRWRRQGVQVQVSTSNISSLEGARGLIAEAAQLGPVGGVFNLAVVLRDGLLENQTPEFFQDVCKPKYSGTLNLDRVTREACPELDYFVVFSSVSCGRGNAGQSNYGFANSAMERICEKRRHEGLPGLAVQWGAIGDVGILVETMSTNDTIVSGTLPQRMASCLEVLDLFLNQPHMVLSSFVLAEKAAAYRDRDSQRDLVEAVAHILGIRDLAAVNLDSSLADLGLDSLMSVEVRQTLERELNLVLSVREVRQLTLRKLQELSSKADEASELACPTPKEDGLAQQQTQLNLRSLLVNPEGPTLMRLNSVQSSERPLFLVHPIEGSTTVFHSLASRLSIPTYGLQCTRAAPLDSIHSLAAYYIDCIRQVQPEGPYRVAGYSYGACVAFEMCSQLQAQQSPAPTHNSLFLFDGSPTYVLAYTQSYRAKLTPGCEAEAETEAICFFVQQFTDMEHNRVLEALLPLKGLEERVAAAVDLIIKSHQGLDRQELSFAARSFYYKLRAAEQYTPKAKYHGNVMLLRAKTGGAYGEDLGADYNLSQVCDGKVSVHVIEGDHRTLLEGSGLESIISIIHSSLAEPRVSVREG
T4 sequence (Q92731 whole entry): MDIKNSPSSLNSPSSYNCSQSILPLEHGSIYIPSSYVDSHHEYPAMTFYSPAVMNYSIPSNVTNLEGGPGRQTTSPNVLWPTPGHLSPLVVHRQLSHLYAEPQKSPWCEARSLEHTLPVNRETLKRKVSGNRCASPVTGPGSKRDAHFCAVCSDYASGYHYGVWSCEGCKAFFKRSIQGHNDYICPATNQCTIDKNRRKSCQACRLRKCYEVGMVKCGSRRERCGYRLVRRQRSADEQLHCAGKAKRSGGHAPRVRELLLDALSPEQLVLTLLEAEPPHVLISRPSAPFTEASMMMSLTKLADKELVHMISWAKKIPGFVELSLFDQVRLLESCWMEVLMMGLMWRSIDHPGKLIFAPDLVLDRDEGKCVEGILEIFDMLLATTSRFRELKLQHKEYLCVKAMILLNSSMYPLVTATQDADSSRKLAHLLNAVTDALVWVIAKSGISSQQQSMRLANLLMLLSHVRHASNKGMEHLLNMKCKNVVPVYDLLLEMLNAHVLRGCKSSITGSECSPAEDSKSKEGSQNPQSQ
Sequence of Mitogen-activated protein kinase 10 (P53779 whole entry): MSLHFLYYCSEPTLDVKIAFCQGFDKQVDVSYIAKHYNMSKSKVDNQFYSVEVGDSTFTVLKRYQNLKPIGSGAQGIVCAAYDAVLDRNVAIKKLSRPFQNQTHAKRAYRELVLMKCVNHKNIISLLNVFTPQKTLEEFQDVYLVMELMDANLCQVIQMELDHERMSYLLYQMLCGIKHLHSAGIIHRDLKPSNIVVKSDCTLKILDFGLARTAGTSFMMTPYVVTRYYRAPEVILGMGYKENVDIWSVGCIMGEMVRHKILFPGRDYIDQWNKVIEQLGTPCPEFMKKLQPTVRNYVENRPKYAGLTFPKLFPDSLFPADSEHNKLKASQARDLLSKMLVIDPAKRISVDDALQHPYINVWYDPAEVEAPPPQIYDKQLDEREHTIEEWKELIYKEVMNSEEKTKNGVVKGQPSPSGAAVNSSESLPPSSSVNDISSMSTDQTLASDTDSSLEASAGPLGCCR

## CCOC(=O)c1cnc2ccc(Cl)cc2c1N1CCN(C)CC1
[1]
  IC50: 25.9 µM (not active)

## Cc1ccc(-n2[nH]c(=O)c(-c3ccccn3)c2C)cc1
[2]
  EC50: 0.571 µM (active)
[3]
  EC50: 2 µM (active)
[4]
  AC50: 3.23 µM (active)
[5]
  AC50: > 52 µM (inactive)
[6]
  AC50: 1.61 µM (active)
[7]
  AC50: 2.08 µM (active)

## Cc1nc(NCc2ccco2)c(C#N)c2c1COC(C)(C)C2
[1]
  IC50: 37.5 µM (not active)

## O=C(Nc1nnc(C2CC2)s1)c1ccccn1
[5]
  AC50: 7.92 µM (active)
[8]
  AC50: 8.23 µM (active)
[6]
  AC50: 18.3 µM (active)
[7]
  AC50: 17.1 µM (active)
[9]
  AC50: 19 µM (active)

## CN1CCN(CC(=O)Nc2sc3c(c2C#N)CCC(C(C)(C)C)C3)CC1 (stereo unspecified)
[10]
  EC50: > 20 µM (not active)
[11]
  EC50: > 20 µM (not active)

## c1ccc(-c2nc(NCc3cccnc3)c3oc4ccccc4c3n2)cc1
[12]
  CC50: 28.9 µM (active)
[10]
  EC50: 14.2 µM (active)
[13]
  EC50: 2.22 µM (active)
[11]
  EC50: 15.8 µM (active)
[14]
  EC50: > 60 µM (not active)
[15]
  EC50: > 260 µM (inactive)

## O=C(Nc1cccc(Cl)c1)c1cc([N+](=O)[O-])ccc1N1CCN(CCO)CC1
Fatty acid synthase [16]
  IC50: 6.61 µM (active)
Fatty acid synthase [17]
  IC50: 2.72 µM (active)

## COc1ccc(C(=O)Nc2ccc3ccccc3c2)cc1
[18]
  EC50: 9.12 µM (inconclusive)
[2]
  EC50: 10.4 µM (inconclusive)
[3]
  EC50: 6.82 µM (active)
[8]
  AC50: 45.6 µM (active)
[6]
  AC50: 5.78 µM (active)
[7]
  AC50: 8.43 µM (active)

## N#CC1=C(N)NC(SCc2ccc(F)cc2)=C(C#N)C12CCCCC2
[19]
  EC50: > 120 µM (not active)
[20]
  EC50: > 120 µM (not active)
H4
  EC50: > 120 µM (not active)
[10]
  EC50: 10.4 µM (active)
[11]
  EC50: 9.03 µM (active)

## O=C(COC(=O)c1ccccc1)NCc1ccco1
Estrogen receptor beta [21]
  IC50: 5.54 µM (active)
Estrogen receptor beta [22]
  IC50: 0.351 µM (not active)
[23]
  IC50: 11.1 µM (active)

## CCNCCC(CCC(C)C)c1ccc2c(c1)OCO2 (stereo unspecified)
[24]
  AC50: > 20 µM (inactive)

## COc1cc(C(=O)COC(=O)c2cc([N+](=O)[O-])ccc2N2CCOCC2)ccc1OC(F)F
Fatty acid synthase [16]
  IC50: 10.3 µM (active)
Fatty acid synthase [17]
  IC50: 10.1 µM (active)

## CCN(CC)CCCNc1cc(C)c(C#N)c2nc3ccccc3n12
[24]
  AC50: > 20 µM (inactive)
